Test results taken from patent US12110288B2, “MASP-2 inhibitors and methods of use” (Omeros Corporation, priority 2019, dated 2024).
pKi: −log10 of the molar value. Counter-ions that a name gives are not always drawn.

Biological target: T1, MASP-2 (CCP1-CCP2-SP) (Homo sapiens, UniProt O00187)
T1 construct: 15 μL of Enzyme MASP-2 (CCP1-CCP2-SP) in Assay Buffer
Assay: Enzymatic Assay for MASP-2
Format: biochemical
Details: fluorogenic substrate based on C2 cleavage site, room temperature, 20 mM HEPES pH 7.4
How it was run: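 Fluorogenic substrate modelled on the C2 cleavage site, run at room temperature in 20 mM HEPES pH 7.4, 140 mM NaCl, 0.1% Tween 20; compounds were added from DMSO serial dilutions before enzyme and substrate. Reactions ran 20 min and were stopped with 0.1 M acetic acid before fluorescence was read. % activity was normalised to DMSO-only and no-enzyme controls; IC50 was taken as Ki, with tight- or slow-binding inhibitors handled separately.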

T1 sequence (O00187 445-686 limits assumed): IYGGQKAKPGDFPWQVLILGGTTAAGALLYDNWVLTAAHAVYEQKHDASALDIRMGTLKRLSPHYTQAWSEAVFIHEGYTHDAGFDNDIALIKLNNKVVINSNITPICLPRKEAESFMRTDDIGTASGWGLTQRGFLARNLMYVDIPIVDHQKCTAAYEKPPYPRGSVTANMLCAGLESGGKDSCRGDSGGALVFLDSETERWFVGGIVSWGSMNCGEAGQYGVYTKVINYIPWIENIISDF
T1 sequence (O00187 298-444 partner limits assumed): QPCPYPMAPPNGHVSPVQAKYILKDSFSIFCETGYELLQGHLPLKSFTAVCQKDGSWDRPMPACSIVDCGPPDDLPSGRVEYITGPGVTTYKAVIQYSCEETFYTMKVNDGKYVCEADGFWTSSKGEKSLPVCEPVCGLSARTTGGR

SMILES | pKi
CC(C)(C)OC(=O)N1CCC2(CC1)CCN(c1ncc(-c3ccccc3)n(CC(=O)NCc3cc4cnccc4[nH]3)c1=O)C2 [Compound 53, Tert-Butyl 2-(4-(2-(((1H-Pyrrolo[3,2-c]Pyridin-2-yl)Methyl)Amino)-2-Oxoethyl)-3-Oxo-5-Phenyl-3,4-Dihydropyrazin-2-yl)-2,8-Diazaspiro[4.5]Decane-8-Carboxylate] | > 6.30
O=C(Cn1c(-c2cccc(C(O)C(F)(F)F)c2)cnc(NCCc2ccccc2)c1=O)NCc1cc2cnccc2[nH]1 (stereo not shown) [Compound 97, N-((1H-Pyrrolo[3,2-c]pyridin-2-yl)methyl)-2-(2-oxo-3-(phenethylamino)-6-(3-(2,2,2-trifluoro-1-hydroxyethyl)phenyl)pyrazin-1(2H)-yl)acetamide] | > 6.30
O=C(Cn1c(-c2ccccc2)cnc(NCC2(c3ccc(C(F)(F)F)cc3)CC2)c1=O)NCc1cc2cnccc2[nH]1 [Compound 60, N-((1H-Pyrrolo[3,2-c]pyridin-2-yl)methyl)-2-(2-oxo-6-phenyl-3-(((1-(4-(trifluoromethyl)phenyl)cyclopropyl)methyl)amino)pyrazin-1(2H)-yl)acetamide trifluoroacetate] | > 6.30
O=C(Cn1c(-c2ccccc2)cnc(NC2(c3ccccc3)CC2)c1=O)NCc1cc2cnccc2[nH]1 [Compound 66, N-((1H-Pyrrolo[3,2-c]pyridin-2-yl)methyl)-2-(2-oxo-6-phenyl-3-((1-phenylcyclopropyl)amino)pyrazin-1(2H)-yl)acetamide trifluoroacetate] | > 6.30
O=C(Cn1c(-c2ccccc2)cnc(NCC2(c3ccccc3)CC2)c1=O)NCc1cc2cnccc2[nH]1 [Compound 52, N-((1H-Pyrrolo[3,2-c]pyridin-2-yl)methyl)-2-(2-oxo-6-phenyl-3-(((1-phenylcyclopropyl)methyl)amino)pyrazin-1(2H)-yl)acetamide trifluoroacetate] | > 6.30
Cc1nc(N)ccc1CNC(=O)Cn1c(-c2cccnc2)cnc(NCCc2ccccc2)c1=O [Compound 18, N-((6-amino-2-methylpyridin-3-yl)methyl)-2-(2-oxo-3-(phenethylamino)-6-(pyridin-3-yl)pyrazin-1(2H)-yl)acetamide trifluoroacetate] | > 6.30
Cc1nc(N)ccc1CNC(=O)Cn1c(-c2ccccc2)ncc(NCCc2ccccc2)c1=O [Compound 6, N-((6-Amino-2-Methylpyridin-3-yl)Methyl)-2-(6-Oxo-5-(Phenethylamino)-2-Phenylpyrimidin-1(6H)-yl)Acetamide] | > 6.30
O=C(Cn1c(-c2cccc(CO)c2)cnc(NCCc2ccccc2)c1=O)NCc1cc2cnccc2[nH]1 [Compound 88, N-((1H-Pyrrolo[3,2-c]pyridin-2-yl)methyl)-2-(6-(3-(hydroxymethyl)phenyl)-2-oxo-3-(phenethylamino)pyrazin-1(2H)-yl)acetamide trifluoroacetate] | > 6.30
NC(=O)c1cccc(-c2cnc(NCCc3ccccc3)c(=O)n2CC(=O)NCc2ccc3nc(N)[nH]c3c2)c1 [Compound 15] | > 6.30
Cc1ccc(C)c(-c2cnc(NCCc3ccccc3)c(=O)n2CC(=O)NCc2cc3cnccc3[nH]2)c1 [Compound 108, N-((1H-Pyrrolo[3,2-c]pyridin-2-yl)methyl)-2-(6-(2,5-dimethylphenyl)-2-oxo-3-(phenethylamino)pyrazin-1(2H)-yl)acetamide] | > 6.30
NCc1cccc(-c2cnc(NCCc3ccccc3)c(=O)n2CC(=O)NCc2cc3cnccc3[nH]2)c1 [Compound 96, N-((1H-Pyrrolo[3,2-c]Pyridin-2-yl)Methyl)-2-(6-(3-(Aminomethyl)Phenyl)-2-Oxo-3-(Phenethylamino)Pyrazin-1(2H)-yl)Acetamide] | > 6.30
O=C(Cn1c(-c2ccccc2)cnc(NCCC(F)F)c1=O)NCc1cc2cnccc2[nH]1 [Compound 127, N-((1H-Pyrrolo[3,2-c]pyridin-2-yl)methyl)-2-(3-((3,3-difluoropropyl)amino)-2-oxo-6-phenylpyrazin-1(2H)-yl)acetamide trifluoroacetate] | > 6.30
Cc1cccc(CCNc2ncc(-c3ccccc3)n(CC(=O)NCc3cc4cnccc4[nH]3)c2=O)c1 [Compound 137, N-((1H-Pyrrolo[3,2-c]pyridin-2-yl)methyl)-2-(3-((3-methylphenethyl)amino)-2-oxo-6-phenylpyrazin-1(2H)-yl)acetamide] | > 6.30
O=C(Cn1c(-c2ccccc2)cnc(N2CC(c3ccccc3)C2)c1=O)NCc1cc2cnccc2[nH]1 [Compound 139, N-((1H-Pyrrolo[3,2-c]pyridin-2-yl)methyl)-2-(2-oxo-6-phenyl-3-(3-phenylazetidin-l-yl)pyrazin-1(2H)-yl)acetamide] | > 6.30
Cn1cc(-c2cnc(NCCc3ccccc3)c(=O)n2CC(=O)NCc2cc3cnccc3s2)cn1 [Compound 133, 2-(6-(1-Methyl-1H-Pyrazol-4-yl)-2-Oxo-3-(Phenethylamino)Pyrazin-1(2H)-yl)-N-(Thieno[3,2-c]Pyridin-2-Ylmethyl)Acetamide] | > 6.30
Cc1nn(C2CC2)cc1-c1cnc(NCCc2ccccc2)c(=O)n1CC(=O)NCc1cc2cnccc2[nH]1 [Compound 114, N-((1H-Pyrrolo[3,2-c]pyridin-2-yl)methyl)-2-(6-(1-cyclopropyl-3-methyl-1H-pyrazol-4-yl)-2-oxo-3-(phenethylamino)pyrazin-1(2H)-yl)acetamide] | > 6.30
Cc1nc(N)ccc1CNC(=O)Cn1c(-c2ccccc2)c(Cl)nc(NC2COC2c2ccccc2)c1=O (stereo not shown) [Compound 42] | 5.60 to 6.30
O=C(Cn1c(Br)cnc(NCCc2ccccc2)c1=O)NCc1cc2cnccc2[nH]1 [Compound 109, N-((1H-Pyrrolo[3,2-c]Pyridin-2-yl)Methyl)-2-(6-Bromo-2-Oxo-3-(Phenethylamino)Pyrazin-1(2H)-yl)Acetamide] | > 6.30

Further lines, results first:

pKi | SMILES
> 6.30 | Cn1cc(-c2cnc(NCCc3ccccc3)c(=O)n2CC(=O)NCc2cc3cnccc3[nH]2)cn1 [Compound 101, N-((1H-Pyrrolo[3,2-c]pyridin-2-yl)methyl)-2-(6-(1-methyl-1H-pyrazol-4-yl)-2-oxo-3-(phenethylamino)pyrazin-1(2H)-yl)acetamide]
< 5.00 | Cn1cc(-c2cnc(NCCc3ccccc3)c(=O)n2CC(=O)NCc2cnc3[nH]ccc3c2)cn1 [Compound 131, N-((1H-Pyrrolo[2,3-b]Pyridin-5-yl)Methyl)-2-(6-(1-Methyl-1H-Pyrazol-4-yl)-2-Oxo-3-(Phenethylamino)Pyrazin-1(2H)-yl)Acetamide]
> 6.30 | Cc1nc(N)ccc1CNC(=O)Cn1c(-c2cccc(CO)c2)cnc(NCCc2ccccc2)c1=O [Compound 32, N-((6-Amino-2-Methylpyridin-3-yl)Methyl)-2-(6-(3-(Hydroxymethyl)Phenyl)-2-Oxo-3-(Phenethyl Amino)Pyrazin-1(2H)-yl)Acetamide]
> 6.30 | CCOC(=O)CNc1ncc(-c2ccccc2)n(CC(=O)NCc2cc3cnccc3[nH]2)c1=O [Compound 117, Ethyl (4-(2-(((1H-pyrrolo[3,2-c]pyridin-2-yl)methyl)amino)-2-oxoethyl)-3-oxo-5-phenyl-3,4-dihydropyrazin-2-yl)glycinate]
> 6.30 | Cc1nccc2[nH]c(CNC(=O)Cn3c(-c4ccccc4)cnc(NCCc4ccccc4)c3=O)cc12 [Compound 72, trifluoroacetate]
> 6.30 | O=C(Cn1c(-c2cnn(C3COC3)c2)cnc(NCCc2ccccc2)c1=O)NCc1cc2cnccc2[nH]1 [Compound 90, N-((1H-pyrrolo[3,2-c]pyridin-2-yl)methyl)-2-(6-(1-(oxetan-3-yl)-1H-pyrazol-4-yl)-2-oxo-3-(phenethylamino)pyrazin-1(2H)-yl)acetamide trifluoroacetate]
5.00 to 5.60 | Cn1cc(-c2cnc(NCCc3ccccc3)c(=O)n2CC(=O)NCc2cnc3scc(Cl)c3c2)cn1 [Compound 82]
5.00 to 5.60 | Cn1cc(-c2cnc(NCCc3ccccc3)c(=O)n2CC(=O)NCc2cnc3[nH]cc(Cl)c3c2)cn1 [Compound 81, N-((3-Chloro-1H-Pyrrolo[2,3-b]Pyridin-5-yl)Methyl)-2-(6-(1-Methyl-1H-Pyrazol-4-yl)-2-Oxo-3-(Phenethylamino)Pyrazin-1(2H)-yl)Acetamide]
> 6.30 | O=C(Cn1c(-c2ccccc2)cnc(NCC2(c3ccccc3)COC2)c1=O)NCc1cc2cnccc2[nH]1 [Compound 47, N-((1H-pyrrolo[3,2-c]pyridin-2-yl)methyl)-2-(2-oxo-6-phenyl-3-(((3-phenyloxetan-3-yl)methyl)amino)pyrazin-1(2H)-yl)acetamide trifluoroacetate]
> 6.30 | COc1ccccc1-c1cnc(NCCc2ccccc2)c(=O)n1CC(=O)NCc1ccc(N)nc1C [Compound 28, N-((6-Amino-2-methylpyridin-3-yl)methyl)-2-(6-(2-methoxyphenyl)-2-oxo-3-(phenethylamino)pyrazin-1(2H)-yl)acetamide hydrochloride]
> 6.30 | O=C(Cn1c(-c2ccccc2)cnc(N2CC[C@H](c3ccccc3)C2)c1=O)NCc1cc2cnccc2[nH]1 [Compound 143, (R)-N-((1H-Pyrrolo[3,2-c]pyridin-2-yl)methyl)-2-(2-oxo-6-phenyl-3-(3-phenylpyrrolidin-l-yl)pyrazin-1(2H)-yl)acetamide]
> 6.30 | O=C(Cn1c(-c2cc(F)ccc2F)cnc(NCCc2ccccc2)c1=O)NCc1cc2cnccc2[nH]1 [Compound 107, N-((1H-Pyrrolo[3,2-c]pyridin-2-yl)methyl)-2-(6-(2,5-difluorophenyl)-2-oxo-3-(phenethylamino)pyrazin-1(2H)-yl)acetamide]
> 6.30 | Cc1ccccc1CCNc1ncc(-c2ccccc2)n(CC(=O)NCc2cc3cnccc3[nH]2)c1=O [Compound 135, N-((1H-Pyrrolo[3,2-c]pyridin-2-yl)methyl)-2-(3-((2-methylphenethyl)amino)-2-oxo-6-phenylpyrazin-1(2H)-yl)acetamide]
